What is called MBC is the smallest concentration meeting the test's criterion for killing. A high value points to less potent killing. As a reminder, the MIC is the smallest concentration in the dilution series that meets the test's criterion for growth inhibition. A lower MIC goes with a more susceptible organism.

No end group written: not given here.

One data set relates to HGFs. The data set is described as follows: Live/dead assay (calcein AM/PI). In kind it is cell-based, human. As to conditions: 62.5 μg/mL, 24 h, vs untreated cells. The protocol:
(§1) A total of 5 × 10^4 cells per well were inoculated into 24-well plates. After 24 h, the cells were exposed to two different types of culture medium: regular medium and medium supplemented with VR-12 (62.5 μg/mL). Following a 24-hour incubation period, the cells were incubated with 200 µL of fresh medium containing calcein AM solution and propidium iodide (PI; Beyotime, Shanghai, China) solution, protected from light for 20 min at room temperature. The observations were conducted using inverted fluorescence microscopy (IX71, Olympus, Japan) and images were captured for documentation purposes.

Data set [1] relates to RAW264.7 cells. The data set can be described thus: Cell proliferation, CCK-8 assay. The note with it: RAW264.7, 125 μg/mL, CCK-8, OD450. The data set is classed as cell-based, murine. The protocol:
RAW264.7 cells (murine macrophage cell line, ATCC, Manassas, VA, United States) and HGFs (ATCC, Manassas, VA, United States) were cultured (37°C, sterile atmosphere of 5% CO2) in DMEM (Gibco, United States) containing 10% (v/v) fetal bovine serum (FBS, Solarbio Co., Ltd., Beijing, China) and 1% penicillin/streptomycin (Gibco, Carlsbad, CA).
We assessed cell growth using the Cell Counting Kit-8 (CCK-8) assay ([Chen et al., 2022]). Cells (1,000 cells/well) were seeded in a 96-well plate. After 24 h, the cells were treated with VR-12 (7.81–125 μg/mL, serial two-fold dilution) for 1, 3, 5, and 7 days. The wells without VR-12 were used as blank controls. Cells were incubated using the CCK-8 kit (New Cell&Molecular Biotech Co., Ltd., Suzhou, China), and the absorbance was measured at OD450.
Background: Tetrazolium assays rely on reduction of a dye to a coloured formazan, in cell work by metabolically active cells.

For data set [2], the system named is RAW264.7 cells. The data set is described as follows: Live/dead assay (calcein AM/PI). The data set is classed as cell-based, murine. As to conditions: RAW264.7, 62.5 μg/mL, 24 h, vs untreated cells. The protocol:
as §1

Data set [3] concerns Streptococcus gordonii (ATCC 10558). The data set is classed as cell-based. As to conditions: ATCC 10558, 48 h. As to the method: (§2) Streptococcus gordonii (ATCC 10558) is a facultative anaerobic bacterium, Fusobacterium nucleatum (ATCC 25586) and Porphyromonas gingivalis (BNCC 353909) are obligate anaerobic bacteria. The effectiveness of VR-12 in suppressing bacterial proliferation was assessed using the standard broth dilution method ([Tang et al., 2022]). Various concentrations of VR-12 (1,000–7.8 μg/mL, serial two-fold dilution) were mixed with liquid medium broth containing bacteria (1 × 10^6 CFU/mL) at a ratio of 1:1, with an overall volume of 200 µL. A blank control was established using a 200 µL PBS solution, whereas a negative control was prepared by combining 100 µL PBS solution with 100 µL of bacterial culture (1 × 10^6 CFU/mL). The bacterial cultures were incubated in liquid medium for 24/48 h at 37°C, with daily observation of the bacterial sediment accumulation at the base of the well. MIC refers to the minimal concentration of peptide that induces a clear liquid and no visible bacterial growth in the well. The bacterial suspension in the well with a concentration greater than the MIC was pipetted evenly and 10 µL of the liquid was extracted from the well and transferred to agar plates and incubated for 24/48 h for MBC determination.

In data set [4] the test system is Fusobacterium nucleatum (ATCC 25586). In kind it is cell-based. The note with it: ATCC 25586, 48 h. The protocol: as §2
Data set [5] concerns Porphyromonas gingivalis (BNCC 353909). In kind it is cell-based. The note with it: 48 h. The protocol:
as §2

The test system of a further data set is rat red blood cells. The note with it: 125 μg/mL (maximum concentration examined), rat erythrocytes 5% (v/v) suspension, 37°C, 1.5 h, OD540, 1% Triton X-100 positive control.

Experimental for rat red blood cells: Initially, the cells underwent three washing cycles with PBS, followed by centrifugation at 1,000 rpm for 10 min at ambient temperature. After removing the supernatant, a suspension of cells at a concentration of 5% (v/v) was prepared using 0.9% NaCl solution (w/v). Subsequently, 100 μL of peptides at varying concentrations (7.81–125 μg/mL, serial two-fold dilution) were combined with 100 μL of the red blood cell suspensions. The mixture underwent incubation at 37°C for a duration of 1.5 h, after which it was subjected to centrifugation at 1,000 rpm for 5 min, and measurement of absorbance at OD540.1% Triton X-100 and NaCl (0.9%) were used as positive and negative controls, respectively. The hemolysis rate (HR) was determined by employing this formula: HR%=ODt−ODn/ODp−ODn×100% where ODp, ODn and ODt were the absorbance values of the positive control group, the negative control group and the test group, respectively.

For the substance VRLWVRVRRWRR-NH2 [VR-12], the α-helix + β-sheet proportion turned out to be 31.5%. Also, the “Cell viability by live/dead staining” value with HGFs is “no significant difference in cell viability”. In addition, the Inhibition rate entry in the data set on RAW264.7 cells [1] is recorded as “approximately 50%”. Moreover, the “Cell viability by live/dead staining” value in the data set on RAW264.7 cells [2] was “no significant difference in cell viability”. Moreover, in data set [3], the MBC was 62.5 µg/mL and the minimal inhibitory concentration (MIC) is 31.25 µg/mL. In data set [4], this substance had an MBC of 125 µg/mL and an MIC of 62.5 µg/mL. In data set [5], this substance had a minimal bactericidal concentration (MBC) of 125 µg/mL and an MIC of 62.5 µg/mL. Also, the Hemolysis rate in the data set on rat red blood cells worked out at 3.27%.

The values above are taken from article PMC11747041, “Study of an arginine- and tryptophan-rich antimicrobial peptide in peri-implantitis” (Frontiers in Bioengineering and Biotechnology, 2025).
